The text below walks through data of the NIST ThermoML archive (doi:10.1016/j.jct.2012.08.026).

± gives the expanded uncertainty stated by the source.

For the data set the following is noted: 308.15 K, 101.33 kPa, Liquid; for viscosity: Capillary tube (Ostwald / Ubbelohde) method; for speed of sound: Pulse-echo method; for mass density: Vibrating tube method.

Consider `CC(O)C(C)O` (stereo not given) [2,3-butanediol], for which the viscosity was determined as 51.38 ± 1.1 mPa·s, the speed of sound is 1456.6 ± 3.7 m/s and the mass density worked out at 990.72 ± 1.1 kg/m3.

For `CC(O)CCO` (stereo not given) [1,3-butanediol], the viscosity was 54.24 ± 1.1 mPa·s, the speed of sound came out at 1496 ± 3.2 m/s and the mass density is listed as 991.28 ± 0.75 kg/m3.

Consider `OCCCCO` [1,4-butanediol], for which the viscosity is recorded as 47.38 ± 0.94 mPa·s, the speed of sound was found to be 1577.8 ± 3.2 m/s and the mass density is 1003.95 ± 0.76 kg/m3.

As for `CCC(O)CO` (stereo not given) [1,2-butanediol], the viscosity is given as 30.29 ± 0.56 mPa·s, the speed of sound amounted to 1422.6 ± 3.7 m/s and the mass density worked out at 988.25 ± 1.1 kg/m3.

For the molecule `O=C1CCCN1` [2-pyrrolidinone], the viscosity is 8.922 ± 0.095 mPa·s, the speed of sound is 1600 ± 3.3 m/s and the mass density is on record as 1097.14 ± 0.85 kg/m3.
